From patent publication US9402878B2, “Depsipeptide and uses thereof” (priority 2012, dated 2016)
Values after ≈ are worked out from the molar mass of the structure shown. Where two headings read alike, the source gives them in different places.

Experiments:
[1] = system: Streptococcus pneumoniae ATCC 6301 (UNT012-2); experiment: Immunocompetent mouse pneumonia model; format: in vivo
Description: The compound of Formula (II) was then evaluated against Streptococcus pneumoniae in an immunocompetent mouse pneumonia model to determine the compound's potential to treat acute respiratory infections. Briefly, CD-1 mice were infected intranasally with Streptococcus pneumoniae ATCC 6301 (UNT012-2) (1.5×10^6 CFU/mouse). The compound was delivered intravenously at 24 and 36 hours post-infection, and at doses ranging from 0.5 to 10 mg/kg/dose. At 48 hours post infection, treated mice were euthanized, lungs aseptically removed and processed for CFU titers

[2] = system: Enterococcus faecalis; experiment: MIC against contemporary clinical isolates; details: for % S (CLSI % susceptible) / MIC Range: n = 10, 50% VRE
[3] = system: Enterococcus faecium; experiment: MIC against contemporary clinical isolates; details: for % S (CLSI % susceptible) / MIC Range: n = 10, 50% VRE
[4] = system: Staphylococcus aureus MRSA; experiment: MIC against contemporary clinical isolates; details: for % S (CLSI % susceptible) / MIC Range: MRSA (n = 20); for MIC50 / MIC90: Staphylococcus aureus, MRSA
[5] = system: Streptococcus pyogenes; experiment: MIC against contemporary clinical isolates; details: for MIC50 / MIC90: Streptococcus pyogenes; for % S (CLSI % susceptible) / MIC Range: n = 10
[6] = system: Staphylococcus epidermidis; experiment: MIC against contemporary clinical isolates; details: for MIC50 / MIC90: Staphylococcus epidermidis; for % S (CLSI % susceptible) / MIC Range: n = 20
[7] = system: Staphylococcus aureus VISA; experiment: MIC against contemporary clinical isolates; details: for MIC50 / MIC90: Staphylococcus aureus, VISA; for % S (CLSI % susceptible) / MIC Range: VISA (n = 10)
[8] = system: S. aureus MRSA ATCC 33591; experiment: Mouse septicemia protection assay; format: in vivo; details: CD-1 female mice, IV, QD single dose one hour post infection, survival after 48 hrs
Description: CD-1 female mice were infected with 0.5 mL of bacterial suspension (3.28×10^7 CFU/mouse) via intraperitoneal injection, a concentration that achieves at least 90% mortality within 48 hours after infection. At one hour post infection, mice were treated with the compound intravenously with single doses and the results are shown in Table 12.

[9] = system: Staphylococcus aureus Linezolid^R; experiment: MIC against contemporary clinical isolates; details: Linezolid^R (n = 5)
[10] = system: Streptococcus agalactiae; experiment: MIC against contemporary clinical isolates; details: for MIC50 / MIC90: Streptococcus agalactiae; for % S (CLSI % susceptible) / MIC Range: n = 10
[11] = system: Streptococcus pneumoniae; experiment: MIC against contemporary clinical isolates; details: for MIC50 / MIC90: Streptococcus pneumoniae, PRSP; for % S (CLSI % susceptible) / MIC Range: n = 20, 28.6% PSSP, 33.3% PISP, 38.1% PRSP
[12] = system: Viridans Group Streptococci; experiment: MIC against contemporary clinical isolates; details: n = 5
[13] = system: Staphylococcus aureus MSSA; experiment: MIC against contemporary clinical isolates; details: for % S (CLSI % susceptible) / MIC Range: MSSA (n = 20); for MIC50 / MIC90: Staphylococcus aureus, MSSA
[14] = system: Staphylococcus aureus Daptomycin^NS; experiment: MIC against contemporary clinical isolates; details: Daptomycin^NS (n = 5)
[15] = system: Bacillus anthracis; format: cell-based
[16] = molecular target: CYP2D6 (Homo sapiens (Human), UniProt P10635); experiment: in vitro; details: liver microsomes, pH 7.4
Sequence of CYP2D6 (P10635 whole entry, looked up): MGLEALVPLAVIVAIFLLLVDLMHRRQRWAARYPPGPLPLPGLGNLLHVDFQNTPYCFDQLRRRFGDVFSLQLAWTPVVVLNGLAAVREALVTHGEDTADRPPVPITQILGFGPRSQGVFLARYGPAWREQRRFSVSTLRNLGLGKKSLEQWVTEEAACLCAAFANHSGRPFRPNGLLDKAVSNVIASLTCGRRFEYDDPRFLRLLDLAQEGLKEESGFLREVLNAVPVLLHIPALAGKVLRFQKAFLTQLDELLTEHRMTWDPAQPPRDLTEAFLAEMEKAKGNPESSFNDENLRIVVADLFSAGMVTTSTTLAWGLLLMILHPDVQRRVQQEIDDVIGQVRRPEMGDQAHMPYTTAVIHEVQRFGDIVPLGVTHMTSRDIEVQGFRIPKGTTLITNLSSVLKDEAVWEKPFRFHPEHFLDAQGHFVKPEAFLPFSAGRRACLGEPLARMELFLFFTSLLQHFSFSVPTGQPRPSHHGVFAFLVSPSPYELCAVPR

## CC1(C)S[C@@H]2[C@H](NC(=O)[C@H](N)c3ccc(O)cc3)C(=O)N2[C@H]1C(=O)O [Amoxicillin]
[1]; 10 mg/kg/dose
  Log10 change from 24 hrs: −3.98 Log10
  Log10 change from 48 hrs: −5.83 Log10
[1]; 10 mg/kg/dose IV at 24 and 36 hours post-infection, lungs at 48 hours
  Mean Log10 CFU: 2.78 Log10 CFU

## CN[C@H](CC(C)C)C(=O)N[C@H]1C(=O)N[C@@H](CC(N)=O)C(=O)N[C@H]2C(=O)N[C@H]3C(=O)N[C@H](C(=O)N[C@H](C(=O)O)c4cc(O)cc(O)c4-c4cc3ccc4O)[C@H](O)c3ccc(c(Cl)c3)Oc3cc2cc(c3O[C@@H]2O[C@H](CO)[C@@H](O)[C@H](O)[C@H]2O[C@H]2C[C@](C)(N)[C@H](O)[C@H](C)O2)Oc2ccc(cc2Cl)[C@H]1O [Vancomycin]
[2]
  MIC50: 1 µg/mL (≈ 0.69 µM)
  MIC90: > 32 µg/mL
  % S (CLSI % susceptible): 50.0%
[3]
  MIC50: 0.5 µg/mL (≈ 0.345 µM)
  MIC90: > 32 µg/mL
  % S (CLSI % susceptible): 50.0%
[4]
  % S (CLSI % susceptible): 100.0%
  MIC Range: 0.5-2^ μg/mL
  MIC50: 0.5 µg/mL (≈ 0.345 µM)
  MIC90: 1 µg/mL (≈ 0.69 µM)
[5]
  MIC50: 0.25 µg/mL (≈ 0.173 µM)
  MIC90: 0.25 µg/mL (≈ 0.173 µM)
  % S (CLSI % susceptible): 100.0%
  MIC Range: 0.25 µg/mL (≈ 0.173 µM)
[6]
  MIC50: 2 µg/mL (≈ 1.38 µM)
  MIC90: 2 µg/mL (≈ 1.38 µM)
  % S (CLSI % susceptible): 100.0%
  MIC Range: 1 to 2 µg/mL
[7]
  MIC50: 4 µg/mL (≈ 2.76 µM)
  MIC90: 8 µg/mL (≈ 5.52 µM)
  % S (CLSI % susceptible): 10.0%
  MIC Range: 1 to 8 µg/mL
[8]
  PD50: ~2.75 mg/kg
[8]; listed as vancomycin
  PD50: ~2.75 mg/kg
[9]
  % S (CLSI % susceptible): 100.0%
  MIC Range: 1 µg/mL (≈ 0.69 µM)
[10]
  MIC50: 0.5 µg/mL (≈ 0.345 µM)
  MIC90: 0.5 µg/mL (≈ 0.345 µM)
  % S (CLSI % susceptible): 100.0%
  MIC Range: 0.25 to 0.5 µg/mL
[11]
  MIC50: 0.25 µg/mL (≈ 0.173 µM)
  MIC90: 0.25 µg/mL (≈ 0.173 µM)
  % S (CLSI % susceptible): 100.0%
  MIC Range: 0.12 to 0.5 µg/mL
[12]
  % S (CLSI % susceptible): 100.0%
  MIC Range: 0.25 to 0.5 µg/mL
[13]
  % S (CLSI % susceptible): 100.0%
  MIC Range: 0.5-1^ μg/mL
  MIC50: 0.5 µg/mL (≈ 0.345 µM)
  MIC90: 1 µg/mL (≈ 0.69 µM)
[14]
  % S (CLSI % susceptible): 40.0%
  MIC Range: 0.5-8^ μg/mL

## C[C@H]1c2cccc(O)c2C(=O)C2=C(O)[C@]3(O)C(=O)C(C(N)=O)=C(O)[C@@H](N(C)C)[C@@H]3[C@@H](O)[C@@H]21 [Doxycycline]
[15]; B. anthracis NR-36
  MIC: 0.06 µg/mL (≈ 0.135 µM)
[15]; B. anthracis NR-38
  MIC: 0.125 µg/mL (≈ 0.281 µM)
[15]; B. anthracis NR-41
  MIC: 0.06 µg/mL (≈ 0.135 µM)
[15]; B. anthracis NR-46
  MIC: 0.125 µg/mL (≈ 0.281 µM)
[15]; B. anthracis NR-411
  MIC: 0.125 µg/mL (≈ 0.281 µM)
[15]; B. anthracis NR-412
  MIC: 0.03 µg/mL (≈ 0.0675 µM)
[15]; B. anthracis NR-413
  MIC: 0.06 µg/mL (≈ 0.135 µM)
[15]; B. anthracis NR-414
  MIC: 0.125 µg/mL (≈ 0.281 µM)
[15]; B. anthracis NR-415
  MIC: 0.06 µg/mL (≈ 0.135 µM)
[15]; B. anthracis NR-3838
  MIC: 0.06 µg/mL (≈ 0.135 µM)

## C=C[C@H]1C[N@@]2CC[C@H]1C[C@@H]2[C@@H](O)c1ccnc2ccc(OC)cc12 [Quinidine]
[16]
  inhibition at 10 min, 0.1 µM: 60.6%
  inhibition at 10 min, 1 µM: 91.7%

## CCCCCCCCCC(=O)N[C@@H](Cc1c[nH]c2ccccc12)C(=O)N[C@H](CC(N)=O)C(=O)N[C@@H](CC(=O)O)C(=O)N[C@@H]1C(=O)NCC(=O)N[C@@H](CCCN)C(=O)N[C@@H](CC(=O)O)C(=O)N[C@H](C)C(=O)N[C@@H](CC(=O)O)C(=O)NCC(=O)N[C@H](CO)C(=O)N[C@@H]([C@H](C)CC(=O)O)C(=O)N[C@@H](CC(=O)c2ccccc2N)C(=O)O[C@@H]1C [Daptomycin]
[2]
  MIC50: 0.25 µg/mL (≈ 0.154 µM)
  MIC90: 0.5 µg/mL (≈ 0.309 µM)
  % S (CLSI % susceptible): 90.0%
  MIC Range: 0.12 to 8 µg/mL
[3]
  MIC50: 0.5 µg/mL (≈ 0.309 µM)
  MIC90: 1 µg/mL (≈ 0.617 µM)
  % S (CLSI % susceptible): 100.0%
  MIC Range: 0.5-1^ μg/mL
[4]
  % S (CLSI % susceptible): 100.0%
  MIC Range: 0.12 to 0.25 µg/mL
  MIC50: 0.25 µg/mL (≈ 0.154 µM)
  MIC90: 0.25 µg/mL (≈ 0.154 µM)
[5]
  MIC50: ≤ 0.03 µg/mL
  MIC90: 0.06 µg/mL (≈ 0.037 µM)
  % S (CLSI % susceptible): 100.0%
  MIC Range: ≦0.03-0.06^ μg/mL
[6]
  MIC50: 0.12 µg/mL (≈ 0.074 µM)
  MIC90: 0.25 µg/mL (≈ 0.154 µM)
  % S (CLSI % susceptible): 100.0%
  MIC Range: 0.06 to 0.25 µg/mL
[7]
  MIC50: 0.5 µg/mL (≈ 0.309 µM)
  MIC90: 1 µg/mL (≈ 0.617 µM)
  % S (CLSI % susceptible): 100.0%
  MIC Range: 0.25 to 1 µg/mL
[9]
  % S (CLSI % susceptible): 100.0%
  MIC Range: 0.25 to 0.5 µg/mL
[10]
  MIC50: 0.12 µg/mL (≈ 0.074 µM)
  MIC90: 0.12 µg/mL (≈ 0.074 µM)
  % S (CLSI % susceptible): 100.0%
  MIC Range: 0.06 to 0.25 µg/mL
[11]
  MIC50: ≤ 0.03 µg/mL
  MIC90: ≤ 0.03 µg/mL
  MIC Range: ≦0.03-0.06^ μg/mL
[12]
  % S (CLSI % susceptible): 100.0%
  MIC Range: 0.06 to 0.25 µg/mL
[13]
  % S (CLSI % susceptible): 100.0%
  MIC Range: 0.12 to 0.25 µg/mL
  MIC50: 0.25 µg/mL (≈ 0.154 µM)
  MIC90: 0.25 µg/mL (≈ 0.154 µM)
[14]
  % S (CLSI % susceptible): 0.0%
  MIC Range: 2 to 8 µg/mL

## CC(=O)NC[C@H]1CN(c2ccc(N3CCOCC3)c(F)c2)C(=O)O1 [Linezolid]
[2]
  MIC50: 2 µg/mL (≈ 5.93 µM)
  MIC90: 2 µg/mL (≈ 5.93 µM)
  % S (CLSI % susceptible): 100.0%
  MIC Range: 1 to 2 µg/mL
[3]
  MIC50: 2 µg/mL (≈ 5.93 µM)
  MIC90: 2 µg/mL (≈ 5.93 µM)
  % S (CLSI % susceptible): 100.0%
  MIC Range: 1 to 2 µg/mL
[4]
  % S (CLSI % susceptible): 100.0%
  MIC Range: 2 to 4 µg/mL
  MIC50: 2 µg/mL (≈ 5.93 µM)
  MIC90: 4 µg/mL (≈ 11.9 µM)
[5]
  MIC50: 1 µg/mL (≈ 2.96 µM)
  MIC90: 1 µg/mL (≈ 2.96 µM)
  % S (CLSI % susceptible): 100.0%
  MIC Range: 0.5-1^ μg/mL
[6]
  MIC50: 2 µg/mL (≈ 5.93 µM)
  MIC90: 2 µg/mL (≈ 5.93 µM)
  % S (CLSI % susceptible): 100.0%
  MIC Range: 1 to 4 µg/mL
[7]
  MIC50: 2 µg/mL (≈ 5.93 µM)
  MIC90: 2 µg/mL (≈ 5.93 µM)
  % S (CLSI % susceptible): 100.0%
  MIC Range: 1 to 4 µg/mL
[9]
  % S (CLSI % susceptible): 0.0%
[10]
  MIC50: 1 µg/mL (≈ 2.96 µM)
  MIC90: 1 µg/mL (≈ 2.96 µM)
  % S (CLSI % susceptible): 100.0%
  MIC Range: 0.5-2^ μg/mL
[11]
  MIC50: 1 µg/mL (≈ 2.96 µM)
  MIC90: 1 µg/mL (≈ 2.96 µM)
  % S (CLSI % susceptible): 100.0%
  MIC Range: 0.25 to 1 µg/mL
[12]
  % S (CLSI % susceptible): 100.0%
  MIC Range: 0.5-1^ μg/mL
[13]
  % S (CLSI % susceptible): 100.0%
  MIC Range: 2 to 4 µg/mL
  MIC50: 2 µg/mL (≈ 5.93 µM)
  MIC90: 4 µg/mL (≈ 11.9 µM)
[14]
  % S (CLSI % susceptible): 80.0%
  MIC Range: 1 to 32 µg/mL
